# Reference: patent publication US8012944B2, “Method for treating cancer using IAP antisense oligomer and chemotherapeutic agent” (Pharmascience Inc., priority 2003, dated 2011)
# Test system: subcutaneous H460 human non-small-cell lung tumor xenografts
# Test: Systemic (i.p.) oligonucleotides with or without vinorelbine in H460 xenografts
# Type: in vivo, SCID-RAG2 mice
# Details: for mean tumor size: day 24, control 0.75
# Experimental: Initial systemic PS-oligonucleotide studies were designed without any chemotherapeutic agents. SCID-RAG2 mice were inoculated with H460 human lung carcinoma cells (s.c. shoulder injection of 10^6 cells) and treatments with G4 and F3 AS PS-oligonucleotides, as well as a scrambled control, were initiated three days after tumor inoculation. Nucleobase oligomer injections were administered i.p. at 12.5 mg/kg three times a week for three weeks. At the end of the treatment period, mean tumor sizes in the groups treated with either G4 or F3 AS oligonucleotides were ˜50% smaller than in the group treated with a scrambled control oligonucleotides (FIG. 15). The same treatment protocol was tested on female SCID-RAG2 mice inoculated orthotopically with MDA-MB-435/LCC6 human breast carcinoma cells. Two weeks after the last treatment (day 35) tumor volumes of mice treated with F3, C5 or G4 AS oligonucleotides were 70%, 60%, and 45%, respectively, smaller than vehicle controls (FIG. 16).
# We conducted additional examination of the antitumor effects of G4 AS oligonucleotides in SCID-RAG2 mice bearing xenografts of H460 human non-small-cell lung tumors implanted subcutaneously. Saline-treated control tumors grew reproducibly to a size of 0.75 cm^3 within approximately 24 days (FIG. 17). Oligonucleotide treatments were initiated three days after tumor cell inoculation. G4 AS oligonucleotides (5 to 15 mg/kg) were administered using a treatment schedule of i.p. injections given once a day on days 3-7, 10-14, and 17-21. The treatment with 5 or 15 mg/kg G4 AS oligonucleotides greatly delayed tumor growth: on day 24 mean tumor sizes were 0.75, 0.45 and 0.29 cm^3 in control, 5 and 15 mg/kg treated groups, respectively (FIG. 18A). There was a dose-dependent inhibition of tumor growth. […] A dose of 15 mg/kg was selected for the future combination treatment regimens with anticancer drugs.
# The human non-small cell lung cancer cell line (large cell type) NCI-H460 (H460) was obtained from ATCC and maintained in RPMI 1640 supplemented with 10% FCS at 37° C. in a humidified atmosphere containing 5% CO2. Cells were used in exponential growth phase, up to a maximum of 25 in vitro passages. Male SCID-RAG2 mice (7-9 weeks old, 23-26 g) were obtained from British Columbia Cancer Agency Joint Animal Facility breeding colony and kept in aseptic environments. A tumor model of NCI-H460 cells in SCID-RAG2 mice was established by subcutaneous implantation of 1×10^6 NCI-H460 cells on the back of mice.
# Efficacy experiments were conducted in male RAG2 immunodeficient mice bearing NCI-H460 tumours or female RAG2 mice bearing LCC6 tumors. Treatments were commenced on day 3 after tumor inoculation. Saline (controls), G4 AS oligonucleotides (5 or 15 mg/kg), or G4 SC oligonucleotides (5 or 15 mg/kg) were administered i.p. daily for five doses a week over a three week regimen. Vinorelbine (VNB, 5 or 10 mg/kg) was administered i.v. via the tail vein, either alone or in combination with oligonucleotides, at day 3, 7, 11 and 17 after tumor inoculation. When oligonucleotides were administered in combination with VNB, the drug treatment was performed four hours after ODN treatment.
# Mice were observed daily. Body weight measurements and signs of stress (e.g., lethargy, ruffled coat, ataxia) were used to detect possible toxicities. Animals with ulcerated tumor, or tumor volumes of 1 cm^3 or greater were killed. Digital caliper measurements of tumors were converted into mean tumor size (cm^3) using the formula: ½[length (cm)]×[width (cm)]^2. An average tumor size per mouse was used to calculate the group mean tumor size±SE (n=6 mice) from at least two independent experiments per group.
sequence,measurement,setting,value
GCTGAGTCTCCATATTGCC [G4 AS] (chemistry not given here),tumor size as % of control mean tumor size,15 mg/kg i.p.,39%
same,mean tumor size smaller than scrambled control group,"PS-oligonucleotides 12.5 mg/kg i.p. three times a week for three weeks, end of treatment",~50%
same,mean tumor size,5 mg/kg i.p.,0.45 cm^3
same,mean tumor size,15 mg/kg i.p.,0.29 cm^3
same,antitumor efficacy on H460 xenografts (in words),"systemic, oligonucleotide 15 mg/kg i.p., VNB 5 or 10 mg/kg i.v.",significant sequence-specific growth inhibitory effects
